Results on five compounds are retold here after patent publication US20040029736A1, “Promoting early establishment of potato crops by ethylene inhibitors” (Valent BioSciences Corporation, priority 2002, published 2004).

Where two headings read alike, the source gives them in different places.

Test [1] concerns potato microtubers. Particulars: potato explants treated during initiation and growth phases of microtuber development; Suttle 1998; cited from earlier work.
The test system of test [2] is potato tubers. Particulars: cited from earlier work; for release from dormancy and sprouting of potato tubers: literature (Alam 1994; Minato 1979; Rama 1981; Rylski 1974).
In test [3] the test system is potato tubers. The test is described as follows: Example 4: sprout number and length of potato tubers dipped in AVG or ethephon (Table 4). It is filed as in vivo, Solanum tuberosum Linn. The following applies: 1000 ppm ethephon dip; for Sprout length (cm) / Sprouts/potato: 20° C., in soil, dark chamber, 21 days after treatment. How it is done:
Potato tubers were dipped in 2000 ppm AVG or 1000 ppm ethephon solution and water-dipped potatoes served as the control. Each treatment consisted of 9 potato tubers. The treated potatoes were then put in plastic trays and placed in dark ventilated chamber at 20° C. […]

For test [4], the system named is potato tubers. In words: Example 5: sprout number and emergence from soil of MCP gas-treated potato tubers at 10° C. (Table 5). It is filed as in vivo, Solanum tuberosum Linn. Particulars: for number of emerged sprouts per potato tuber: 50 ppm MCP; for % Emergence / Sprouts/Tuber: 50 ppm MCP for 20 hr, in soil. How it is done:
Potato tubers were treated with 50 ppm MCP in a closed plastic drum (30 gallon) for 20 hr and untreated potatoes served as the control. Each treatment consisted of 9 potato tubers. The treated potatoes were then planted in soil in plastic trays and placed in a ventilated chamber at 10° C. […]

[5] abbreviates: Gold Rush, 15 days after treatment.
[6] abbreviates: Gold Rush, 18 days after treatment.
[7] abbreviates: Norkotah, 15 days after treatment.
The mark [8] stands for this setting: Norkotah, 18 days after treatment.
Where [9] appears, read: Russet Burbank, 15 days after treatment.
Where [10] appears, read: Russet Burbank, 18 days after treatment.
Where [11] appears, read: Superior, 15 days after treatment.
The mark [12] stands for this setting: Superior, 18 days after treatment.

`C1=CC2C=CC1C2` [2,5-norbomadiene]: the sprouting of microtubers result in test [1] is “caused precocious sprouting”.

Regarding `O=P(O)(O)CCCl` [ethephon, 2-chloroethyl phosphonic acid], the “release from dormancy and sprouting of potato tubers” value in test [2] was “enhances release from dormancy and increases sprouting”. Moreover, the “sprouting” value in test [3] (Russet Burbank and Superior) is “stimulate sprouting”. The “sprout elongation” value in test [3] (potato tubers) is “did not”. Moreover, in test [3] (Russet Burbank), the “Sprout length (cm)” value worked out at 15.6 A cm and the Sprouts/potato was determined as 10.8 B. Moreover, in test [3] (Superior), the “Sprout length (cm)” value was 16.8 AB cm and the Sprouts/potato was found to be 9.9 B.

`C=C` [ethylene]: in test [2], the “release from dormancy and sprouting of potato tubers” value is “enhances release from dormancy and increases sprouting”. In addition, in test [2] (literature (Minato 1979; Rylski 1974)), the sprout elongation result is “inhibit sprout elongation”.

Regarding `CC1=CC1` [MCP, 1-methylcyclopropene], the “number of emerged sprouts per potato tuber” value is “increased” in test [4] (Russet Burbank, Norkotah, and Gold Rush); “not” in test [4] (Superior). Moreover, the “% Emergence” value was determined as 44% in test [4] (setting [5]); 56% in test [4] (setting [6]); 78% in test [4] (setting [7]); 78% in test [4] (setting [8]); 100% in test [4] (setting [9]); 100% in test [4] (setting [10]). The “% Emergence” value in test [4] (setting [11]) and in test [4] (setting [12]) was 89% in each case. For the same compound, the Sprouts/Tuber in test [4] (setting [5]) is reported as 0.8 B; in test [4] (setting [6]) it was 1.3 B; in test [4] (setting [7]) it was 1.7 B; in test [4] (setting [8]), 2.0 B; in test [4] (setting [9]) it was 2.4 B; in test [4] (setting [10]), 2.9 B. In addition, the Sprouts/Tuber in test [4] (setting [11]) is recorded as 1.2 A; in test [4] (setting [12]) it was 1.6 A.

In the case of `O=[N+]([O-])[O-].[Ag+]` [silver nitrate], in test [1], the sprouting of microtubers result is recorded as “caused precocious sprouting”.
